Target: T1, SIRT1 (Homo sapiens, UniProt Q96EB6)
T1 sequence (Q96EB6 1-747): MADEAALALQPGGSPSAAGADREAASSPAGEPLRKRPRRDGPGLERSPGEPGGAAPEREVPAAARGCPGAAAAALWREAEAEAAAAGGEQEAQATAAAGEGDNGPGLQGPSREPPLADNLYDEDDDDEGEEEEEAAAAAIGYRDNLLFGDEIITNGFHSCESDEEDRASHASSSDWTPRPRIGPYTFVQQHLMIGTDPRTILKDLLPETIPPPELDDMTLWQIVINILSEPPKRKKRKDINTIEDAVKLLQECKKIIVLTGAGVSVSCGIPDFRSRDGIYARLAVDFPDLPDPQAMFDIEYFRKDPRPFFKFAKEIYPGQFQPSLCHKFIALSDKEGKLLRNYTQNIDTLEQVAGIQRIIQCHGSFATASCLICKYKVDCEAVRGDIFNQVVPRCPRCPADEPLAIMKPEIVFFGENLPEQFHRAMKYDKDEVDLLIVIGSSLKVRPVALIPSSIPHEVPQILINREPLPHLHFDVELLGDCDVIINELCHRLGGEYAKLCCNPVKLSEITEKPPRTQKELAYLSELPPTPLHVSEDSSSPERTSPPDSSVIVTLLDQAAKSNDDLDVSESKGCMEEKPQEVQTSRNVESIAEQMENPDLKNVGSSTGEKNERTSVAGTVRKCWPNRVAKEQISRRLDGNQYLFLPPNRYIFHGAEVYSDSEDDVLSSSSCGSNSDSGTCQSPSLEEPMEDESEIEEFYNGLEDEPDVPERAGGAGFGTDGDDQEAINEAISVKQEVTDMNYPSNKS
Test: Trp mass spectrometry assay of SIRT1 activity (EC1.5, percent maximum activation)
Format: biochemical
Conditions: Trp mass spectrometry assay; 0.5 μM peptide substrate, 120 μM βNAD+, 10 nM SIRT1, 25 minutes at 25° C.
Summary of the method: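 Steps: recombinant SIRT1 (N-His, bacterial) and NAD with p53-derived, norleucine-substituted 5TMR peptide; add compound at several concentrations; incubate 25 min; stop with 10% formic acid; freeze; quantify OAADPR by mass spec against control lacking compound.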

Compound	TRP Activity (EC1.5, concentration of test compound that results in 150% activation of SIRT1)	TRP MAX RESP (percent maximum fold activation)
Cc1ccc(-c2ccc3c(n2)N(C(=O)Nc2cccnc2)[C@H]2CCN3C2)c(C)n1 [Example 201, (4S)-7-(2,6-dimethylpyridin-3-yl)-N-(pyridin-3-yl)-3,4-dihydro-1,4-methanopyrido[2,3-b][1,4]diazepine-5(2H)-carboxamide]	B (EC1.5 1-25 μM)	A (Fold activation ≧150%)
Cc1cc(-c2ccc3c(n2)N(C(=O)Nc2nc4scc(C)n4n2)[C@H]2CCN3C2)ccn1 [Example 202, (4S)-7-(2-methylpyridin-4-yl)-N-(6-methylthiazolo[3,2-b][1,2,4]triazol-2-yl)-3,4-dihydro-1,4-methanopyrido[2,3-b][1,4]diazepine-5(2H)-carboxamide]	B (EC1.5 1-25 μM)	A (Fold activation ≧150%)
O=C(Nc1cccnc1)N1c2nc(N3CCOC[C@@H]3CO)ccc2N2CC[C@H]1C2 [Example 203, (4S)-7-((S)-3-(hydroxymethyl)morpholino)-N-(pyridin-3-yl)-3,4-dihydro-1,4-methanopyrido[2,3-b][1,4]diazepine-5(2H)-carboxamide]	C (EC1.5>25 μM)	B (Fold Activation <150%)
C[C@@H]1COCCN1c1ccc2c(n1)N(C(=O)Nc1cccnc1)[C@H]1CCN2C1 [Example 204, (4S)-7-((R)-3-methylmorpholino)-N-(pyridin-3-yl)-3,4-dihydro-1,4-methano-pyrido[2,3-b][1,4]diazepine-5(2H)-carboxamide]	B (EC1.5 1-25 μM)	A (Fold activation ≧150%)
Cc1ccc(-c2ccc3c(n2)N(C(=O)Nc2cncc(OC[C@@H](O)CO)n2)[C@H]2CCN3C2)cn1 [Example 205, (4S)-N-(6-((S)-2,3-dihydroxypropoxy)pyrazin-2-yl)-7-(6-methylpyridin-3-yl)-3,4-dihydro-1,4-methanopyrido[2,3-b][1,4]diazepine-5(2H)-carboxamide]	B (EC1.5 1-25 μM)	A (Fold activation ≧150%)
CN1CCN(c2ccc3c(n2)N(C(=O)Nc2cnccn2)[C@H]2CCN3C2)CC1 [Example 206, (4S)-7-(4-methylpiperazin-1-yl)-N-(pyrazin-2-yl)-3,4-dihydro-1,4-methanopyrido[2,3-b][1,4]diazepine-5(2H)-carboxamide]	B (EC1.5 1-25 μM)	A (Fold activation ≧150%)
O=C(Nc1cnccn1)N1c2nc(-c3ccc(C(F)(F)F)nc3)ccc2N2CC[C@H]1C2 [Example 208, (4S)-N-(pyrazin-2-yl)-7-(6-(trifluoromethyl)pyridin-3-yl)-3,4-dihydro-1,4-methanopyrido[2,3-b][1,4]diazepine-5(2H)-carboxamide]	B (EC1.5 1-25 μM)	A (Fold activation ≧150%)
Cc1ccc(-c2ccc3c(n2)N(C(=O)Nc2cccc4cnccc24)[C@H]2CCN3C2)cn1 [Example 209, (4S)-N-(isoquinolin-5-yl)-7-(6-methylpyridin-3-yl)-3,4-dihydro-1,4-methanopyrido[2,3-b][1,4]diazepine-5(2H)-carboxamide]	B (EC1.5 1-25 μM)	A (Fold activation ≧150%)
Cc1cc(-c2nc3c(cc2Cl)N2CC[C@@H](C2)N3C(=O)Nc2cccnc2)ccn1 [Example 210, (9S)-4-chloro-5-(2-methylpyridin-4-yl)-N-(pyridin-3-yl)-1,6,8-triazatricyclo[7.2.1.0{2,7}]dodeca-2,4,6-triene-8-carboxamide]	B (EC1.5 1-25 μM)	A (Fold activation ≧150%)
CC1(C)CN(c2ccc3c(n2)N(C(=O)Nc2cnccn2)[C@H]2CCN3C2)CCO1 [Example 211, (4S)-7-(2,2-dimethylmorpholino)-N-(pyrazin-2-yl)-3,4-dihydro-1,4-methanopyrido[2,3-b][1,4]diazepine-5(2H)-carboxamide]	A (EC1.5<1 μM)	A (Fold activation ≧150%)
Cc1cc(-c2ccc3c(n2)N(C(=O)Nc2cnccn2)[C@H]2CCN3C2)cnn1 [Example 212, (4S)-7-(6-methylpyridazin-4-yl)-N-(pyrazin-2-yl)-3,4-dihydro-1,4-methanopyrido[2,3-b][1,4]diazepine-5(2H)-carboxamide]	B (EC1.5 1-25 μM)	A (Fold activation ≧150%)
Cc1ncc(-c2ccc3c(n2)N(C(=O)Nc2cnccn2)[C@H]2CCN3C2)s1 [Example 214, (4S)-7-(2-methylthiazol-5-yl)-N-(pyrazin-2-yl)-3,4-dihydro-1,4-methanopyrido[2,3-b][1,4]diazepine-5(2H)-carboxamide]	B (EC1.5 1-25 μM)	A (Fold activation ≧150%)
COC(=O)c1cc(-c2ccc3c(n2)N(C(=O)Nc2cnccn2)[C@H]2CCN3C2)ccn1 [Example 215, methyl 4-((4S)-5-(pyrazin-2-ylcarbamoyl)-2,3,4,5-tetrahydro-1,4-methanopyrido[2,3-b][1,4]diazepin-7-yl)picolinate]	B (EC1.5 1-25 μM)	A (Fold activation ≧150%)
O=C(Nc1cnccn1)N1c2nc(-c3ccnc(C(F)F)c3)ccc2N2CC[C@H]1C2 [Example 216, (4S)-7-(2-(difluoromethyl)pyridin-4-yl)-N-(pyrazin-2-yl)-3,4-dihydro-1,4-methanopyrido[2,3-b][1,4]diazepine-5(2H)-carboxamide]	A (EC1.5<1 μM)	A (Fold activation ≧150%)
Cc1cc(-c2ccc3c(n2)N(C(=O)Nc2cnccn2)[C@H]2CCN3C2)c(F)cn1 [Example 217, (4S)-7-(5-fluoro-2-methylpyridin-4-yl)-N-(pyrazin-2-yl)-3,4-dihydro-1,4-methanopyrido[2,3-b][1,4]diazepine-5(2H)-carboxamide]	B (EC1.5 1-25 μM)	A (Fold activation ≧150%)
O=C(Nc1cnccn1)N1c2nc(-c3ccnc(CO)c3)ccc2N2CC[C@H]1C2 [Example 218, (4S)-7-(2-(Hydroxymethyl)pyridin-4-yl)-N-(pyrazin-2-yl)-3,4-dihydro-1,4 methanopyrido[2,3-b][1,4]diazepine-5(2H)-carboxamide]	B (EC1.5 1-25 μM)	A (Fold activation ≧150%)
N#Cc1ccc(-c2ccc3c(n2)N(C(=O)Nc2cnccn2)[C@H]2CCN3C2)cn1 [Example 219, (4S)-7-(6-cyanopyridin-3-yl)-N-(pyrazin-2-yl)-3,4-dihydro-1,4-methanopyrido[2,3-b][1,4]diazepine-5(2H)-carboxamide]	C (EC1.5>25 μM)	B (Fold Activation <150%)
CCc1cnc(NC(=O)N2c3nc(-c4ccc(C)nc4)ccc3N3CC[C@H]2C3)cn1 [Example 220, (4S)-N-(5-ethylpyrazin-2-yl)-7-(6-methylpyridin-3-yl)-3,4-dihydro-1,4-methanopyrido[2,3-b][1,4]diazepine-5(2H)-carboxamide]	B (EC1.5 1-25 μM)	A (Fold activation ≧150%)
Cc1cc(-c2ccc3c(n2)N(C(=O)Nc2cncc(OC(C)C)n2)[C@H]2CCN3C2)ccn1 [Example 221, (4S)-N-(6-isopropoxypyrazin-2-yl)-7-(2-methylpyridin-4-yl)-3,4-dihydro-1,4-methanopyrido[2,3-b][1,4]diazepine-5(2H)-carboxamide]	A (EC1.5<1 μM)	A (Fold activation ≧150%)
Cc1cc(-c2ccc3c(n2)N(C(=O)Nc2cnccn2)[C@H]2CCN3C2)cnc1C#N [Example 222, (4S)-7-(6-cyano-5-methylpyridin-3-yl)-N-(pyrazin-2-yl)-3,4-dihydro-1,4-methanopyrido[2,3-b][1,4]diazepine-5(2H)-carboxamide]	B (EC1.5 1-25 μM)	A (Fold activation ≧150%)

— US20170355705A1 (GlaxoSmithKline Intellectual Property (No.2) Limited, priority 2014, published 2017)
